According to patent US5843959A, “Methods and bicyclic polyamine compositions for the treatment of inflammation” (University of Florida Research Foundation, Inc., priority 1997, dated 1998):
Several values for one entry are separate records, joined by “and”; a condition that tells them apart may be missing. Equal entries are not always repeated.

Experiments:
[1] = system: carrageenan-induced edema in rat paw; assay: Inhibition of carrageenan-induced paw edema in rats; conditions: vs vehicle control; aspirin 150 mg/kg p.o., hydrocortisone 25 mg/kg p.o., PIP[4,4,4] 30 mg/kg i.p.; >30% significant
[2] = system: adjuvant-induced arthritis; assay: Adjuvant-induced arthritis model in Lewis rats (Table 7); conditions: p.o. 5 days, DiPIPs 100 mg/kg, Voltaren and indomethacin 6 mg/kg; for % FINAL INHIBITION: Day 28-0
Procedure: Four groups consisting of 6 male Lewis rats weighing 150-200 g were injected subcutaneously at the base of the tail with 0.1 ml of CFA. Drugs to be assayed were administered 5 days beginning on the day of the adjuvant injection. The paw volume of the right and left rear paw of each rat were measured on the day of adjuvant injection and at regular intervals for 30 days thereafter.
The emulsion was injected subcutaneously at the base of the tail and induced the arthritic state. Measurements of paw volume were made for 30 days to monitor paw swelling. Drug treatment began on Day 0.
Four groups consisting of 10 male Lewis rats weighing 150-200 g were injected subcutaneously at the base of the tail with 0.1 ml of CFA. Drugs to be assayed were administered for 5 days beginning on the day of the adjuvant injection.

[3] = system: adjuvant-induced arthritis; conditions: for Inhibition % B (5-0): 5th day after 5 doses; for Inhibition % B (5-0) / Inhibition % A (1-0): p.o.: PIP[4,4,4] 100, hydrocortisone 30, indomethacin 5 mg/kg; for Inhibition % B (5-0) / Inhibition % A (1-0) / Inhibition % C (5-1) / Inhibition % D (14-0) / Inhibition % F (18-14) / Inhibition % E (18-0): >30% significant; for Net swelling of paw volume A (1-0), average: Day 1 - Day 0, average; for Net swelling of paw volume B (5-0), average: Day 5 - Day 0, average; for Net swelling of paw volume B (5-0): Day 5 - Day 0, individual rat; for Net swelling of paw volume C (5-1), average: Day 5 - Day 1, average; for Net swelling of paw volume C (5-1): Day 5 - Day 1, individual rat; for Polyarthritis E (ears) / Polyarthritis N (noses) / Polyarthritis P (paws) / Polyarthritis T (tails): Day 19, individual rat; for Inhibition % A (1-0): first day, after one dose; for Inhibition % C (5-1): paw volume change Day 1 to Day 5; for Net swelling of paw volume D (14-0), average / Net swelling of paw volume D (14-0) / Inhibition % D (14-0) / Inhibition % F (18-14) / Net swelling of paw volume E (18-0), average / Net swelling of paw volume E (18-0) / Net swelling of paw volume F (18-14), average / Net swelling of paw volume F (18-14) / Inhibition % E (18-0): untreated paw; for Net swelling of paw volume D (14-0), average: Day 14 - Day 0, average; for Net swelling of paw volume D (14-0): Day 14 - Day 0, individual rat; for Inhibition % D (14-0): Day 14 relative to Day 0; for Inhibition % F (18-14): Day 14 to Day 18; for Net swelling of paw volume E (18-0), average: Day 18 - Day 0, average; for Net swelling of paw volume E (18-0): Day 18 - Day 0, individual rat; for Net swelling of paw volume F (18-14), average: Day 18 - Day 14, average; for Net swelling of paw volume F (18-14): Day 18 - Day 14, individual rat; for Inhibition % E (18-0): Day 18 relative to Day 0; for Weight gain reductions (in words): vs vehicle-treated animals, 18 day study
[4] = p.o. × 5: PIP[4,4,4] 100, hydrocortisone 30, indomethacin 5 mg/kg

| SMILES | % Edema inhibition [1] [%] | % FINAL INHIBITION [2] | Inhibition % B (5-0) [3] [%] | Net swelling of paw volume A (1-0), average [3, 4] [mL] | Net swelling of paw volume B (5-0), average [3, 4] [mL] | Net swelling of paw volume B (5-0) [3, 4] | Net swelling of paw volume C (5-1), average [3, 4] [mL] | Net swelling of paw volume C (5-1) [3, 4] | Polyarthritis E (ears) [3, 4] | Polyarthritis N (noses) [3, 4] | Polyarthritis P (paws) [3, 4] | Polyarthritis T (tails) [3, 4] | Inhibition % A (1-0) [3] [%] | Inhibition % C (5-1) [3, 4] [%] | Net swelling of paw volume D (14-0), average [3, 4] [mL] | Net swelling of paw volume D (14-0) [3, 4] | Inhibition % D (14-0) [3, 4] [%] | Inhibition % F (18-14) [3, 4] [%] | Net swelling of paw volume E (18-0), average [3, 4] [mL] | Net swelling of paw volume E (18-0) [3, 4] | further results |
| --- | --- | --- | --- | --- | --- | --- | --- | --- | --- | --- | --- | --- | --- | --- | --- | --- | --- | --- | --- | --- | --- |
| CC(=O)Oc1ccccc1C(=O)O [Aspirin] | 46 |  |  |  |  |  |  |  |  |  |  |  |  |  |  |  |  |  |  |  |  |
| C(CCNC1CCNCC1)CNC1CCNCC1 [DiPIP[3,4,3], N,N'-Bis(4-piperidinyl)-1,4-butanediamine] |  | 70% and 41% |  |  |  |  |  |  |  |  |  |  |  |  |  |  |  |  |  |  |  |
| COc1ccc2c(c1)c(CC(=O)O)c(C)n2C(=O)c1ccc(Cl)cc1 [Indomethacin] |  | 93% | 48 | 0.53 | 0.85 | 0.84 mL and 0.86 mL and 0.72 mL and 0.81 mL and 1.02 mL | 0.32 | 0.31 mL and 0.28 mL and 0.14 mL and 0.30 mL and 0.57 mL | - | - | - | - | 36 | 61 | 0.28 | 0.20 mL and 0.40 mL and 0.26 mL and 0.42 mL and 0.12 mL | 38 | 50 | 0.43 | 0.43 mL and 0.50 mL and 0.51 mL and 0.49 mL and 0.22 mL | Net swelling of paw volume A (1-0) ([3]; Day 1 - Day 0, individual rat, p.o. × 5: PIP[4,4,4] 100, hydrocortisone 30, indomethacin 5 mg/kg): 0.53 mL and 0.58 mL and 0.51 mL and 0.45 mL; B.W. Gain (18-0), average ([3]; rat, in vivo): 8 g; Net swelling of paw volume F (18-14), average [3, 4]: 0.15 mL; Net swelling of paw volume F (18-14) [3, 4]: 0.23 mL and 0.10 mL and 0.25 mL and 0.07 mL; Inhibition % E (18-0) [3, 4]: 43%; Weight gain reductions (in words) [3]: did not affect weight gain reductions; FINAL DAY 28-0 (paw volume) [2]: 0.14; INITIAL DAY 14-0 (paw volume) [2]: .004 |
| C[C@]12CCC(=O)C=C1CC[C@@H]1[C@@H]2[C@@H](O)C[C@@]2(C)[C@H]1CC[C@]2(O)C(=O)CO [Hydrocortisone] | 32 |  | 36 | 0.73 | 1.06 | 0.89 mL and 0.96 mL and 0.86 mL and 0.98 mL and 1.61 mL | 0.33 | 0.11 mL and 0.31 mL and 0.16 mL and 0.91 mL | - | - | + and - | - | 12 | 60 | 0.35 | 0.43 mL and 0.31 mL and 0.30 mL and 0.38 mL and 0.33 mL | 22 | 37 | 0.54 | 0.53 mL and 0.38 mL and 0.66 mL and 0.72 mL and 0.41 mL | Net swelling of paw volume F (18-14), average [3, 4]: 0.19 mL; Net swelling of paw volume F (18-14) [3, 4]: 0.10 mL and 0.07 mL and 0.36 mL and 0.34 mL and 0.08 mL; Inhibition % E (18-0) [3, 4]: 28%; Weight gain reductions (in words) [3]: did not affect weight gain reductions |
| O=C(O)Cc1ccccc1Nc1c(Cl)cccc1Cl [Voltaren] |  | 67% |  |  |  |  |  |  |  |  |  |  |  |  |  |  |  |  |  |  | FINAL DAY 28-0 (paw volume) [2]: .629; INITIAL DAY 14-0 (paw volume) [2]: .232 |
